Like-named read-outs stand apart in the source and are kept apart here.
Legend:
Format in all cases: cell-based
[1] = test system: Septoria tritici; assay: Activity against leaf blotch on wheat caused by Septoria tritici in the microtiter test (Septtr); details: single active compound, 405 nm, day 7 after inoculation
[2] = test system: Phytophthora infestans; assay: microbe, parasite or virus in culture; details: 168 h, read-out: Observed efficacy
[3] = test system: Pyricularia oryzae; details: single active compound, 405 nm, 7 days after inoculation

CC(Cc1ccc(C(C)(C)C)cc1)CN1C[C@@H](C)O[C@@H](C)C1 (mixture of isomers) [Fenpropimorph, (RS)-cis-4-[3-(4-tert-butylphenyl)-2-methylpropyl]-2,6-dimethylmorpholine]
Observed efficacy ([1]; 1 ppm): 9%

CCCCCCCCc1c(CC)nc2ncnn2c1N [5-ethyl-6-octyl-[1,2,4]triazolo[1,5-a]pyrimidine-7-ylamine]
inhibition of growth at 0.25 ppm [2]: 29%

O=C1C2CC=CCC2C(=O)N1SC(Cl)(Cl)Cl (stereo not drawn) [Captan, 2-trichloromethylsulfanyl-3a,4,7,7a-tetrahydroisoindole-1,3-dione]
inhibition of growth at 1 ppm [2]: 26%

COC(=O)Nc1nc2ccccc2[nH]1 [Carbendazim, methyl (1H-benzoimidazol-2-yl)-carbamate]
Observed efficacy ([3]; 0.25 ppm): 24%

N#Cc1c(Cl)c(Cl)c(Cl)c(C#N)c1Cl [Chlorothalonil, 2,4,5,6-tetrachloroisophthalonitrile]
inhibition of growth at 0.25 ppm [2]: 10%

CNC(=O)/C(=N/OC)c1ccccc1COc1cc(C)ccc1C [Dimoxystrobin, (E)-2-(methoxyimino)-N-methyl-2-[α-(2,5-xylyloxy)-o-tolyl]acetamide]
inhibition of growth at 0.25 ppm [2]: 42%

OC(c1cccnc1)c1c(-c2ccc(Cl)cc2)csc1-c1ccc(Cl)cc1 (stereo not drawn) [I.8, 2,4-Bis-(4-chlorophenyl)-3-[(3-pyridyl)hydroxymethyl]thiophene]
inhibition of growth at 0.063 ppm [2]: 2% | inhibition of growth at 0.25 ppm [2]: 1% | inhibition of growth at 1 ppm [2]: 4% | inhibition of growth at 4 ppm [2]: 19% | Observed efficacy ([3]; 0.25 ppm): 2% | Observed efficacy ([3]; 1 ppm): 0% | Observed efficacy ([1]; 0.063 ppm): 4% | Observed efficacy ([1]; 0.25 ppm): 10%

OC(c1cccnc1)c1c(-c2ccc(F)cc2F)csc1-c1ccc(F)cc1F (stereo not drawn) [I.16, 2,4-Bis-(2,4-Difluorophenyl)-3-[(3-pyridyl)hydroxymethyl]thiophene]
inhibition of growth at 1 ppm [2]: 0% | Observed efficacy ([3]; 1 ppm): 0%

Cc1ccc(C(C)NC(=O)[C@@H](NC(=O)OC(C)C)C(C)C)cc1 (stereo partly drawn) [Iprovalicarb, isopropyl [(1S)-2-methyl-1-(1-p-tolylethylcarbamoyl)propyl]carbamate]
inhibition of growth at 1 ppm [2]: 66%

OC(Cc1ccccc1Cl)(Cn1nc[nH]c1=S)C1(Cl)CC1 (stereo not drawn) [Prothioconazole, 2-[2-(1-chlorocyclopropyl)-3-(2-chlorophenyl)-2-hydroxypropyl]-2,4-dihydro-[1,2,4]triazole-3-thione]
inhibition of growth at 16 ppm [2]: 22%

CC(C)(C)C(O)(CCc1ccc(Cl)cc1)Cn1cncn1 (stereo not drawn) [Tebuconazol, 1-(4-chlorophenyl)-4,4-dimethyl-3-[1,2,4]triazol-1-ylmethylpentan-3-ol]
Observed efficacy ([1]; 0.25 ppm): 63%

CCCCCCCCCCCCCN1CC(C)OC(C)C1 (stereo not drawn) [Tridemorph, 2,6-dimethyl-4-tridecylmorpholine]
Observed efficacy ([1]; 1 ppm): 3%

zinc propylenebis(dithiocarbamate) polymer [Propineb]
Observed efficacy ([3]; 1 ppm): 23%
